Tests used:
[1] = target: T1, E3 ubiquitin-protein ligase Mdm2 [1-118] (Homo sapiens, UniProt Q00987); test: NMR Measurements; details: pH 7.4; 15 °C
T1 construct: 1-118

[2] = target: T2, E3 ubiquitin-protein ligase Mdm2 [1-118,T47W] (Homo sapiens, UniProt Q00987, T47W); test: Microscale Thermophoresis (MT) Binding Assay; details: pH 7.4; 25 °C
T2 construct: 1-118
Experimental: Experiments were performed in 50 mM phosphate buffer at pH 7.4 containing 150 mM NaCl, 5 mM DTT, and 5% DMSO.

Q: Which results are given for `CN1C(=O)C(c2c[nH]c3cc(Cl)ccc23)=C(c2ccc(Cl)cc2)C1(O)Cc1ccc(Cl)cc1` (centres undefined) [N-methyl-5-(4-chlorobenzyl)-3-(6-chloro-1H-indol-3-yl)-4-(4-chlorophenyl)-5-hydroxy-1,5-dihydro-2H-pyrrol-2-one (1d)]?
A: Kd [1]: 192 µM; Kd [2]: 27.7 µM

Q: What does the source list for `O=C1C(c2ccc(Cl)cc2)=C(c2c[nH]c3cc(Cl)ccc23)C(O)N1Cc1ccc(Cl)cc1` (centres undefined) [N-(4-chlorobenzyl)-4-(6-chloro-1H-indol-3-yl)-3-(4-chlorophenyl)-5-hydroxy-1,5-dihydro-2H-pyrrol-2-on (1g)]?
A: Kd [1]: 164 µM; Kd [2]: 24.4 µM

Q: Which results are given for `O=C1OC(O)(Cc2ccc(Cl)cc2)C(Cc2ccc(Cl)cc2)=C1c1c[nH]c2cc(Cl)ccc12` (centres undefined) [4,5-di(4-chlorobenzyl)-3-(6-chloro-1H-indol-3-yl)-5-hydroxy-1,5-dihydro-2H-furan-2-one (2b)]?
A: Kd [1]: 86 µM; Kd [2]: 1.5 µM

Q: How did the Kd [1] turn out when `O=C1OC(O)(Cc2ccc(Cl)cc2)C(c2ccc(Cl)cc2)=C1c1c[nH]c2cc(Cl)ccc12` (centres undefined) [5-(4-chlorobenzyl)-3-(6-chloro-1H-indol-3-yl)-4-(4-chlorophenyl)-5-hydroxy-1,5-dihydro-2H-furan-2-one (2f)] was run?
A: The Kd was 68 µM.

Q: And the Kd [2]?
A: The Kd was 7 µM.

Q: With `CN1C(=O)C(Cc2ccc(Cl)cc2)=C(c2c[nH]c3cc(Cl)ccc23)C1(O)Cc1ccc(Cl)cc1` (centres undefined) [N-Methyl-3,5-di(4-chlorobenzyl)-4-(6-chloro-1H-indol-3-yl)-5-hydroxy-1,5-dihydro-2H-pyrrol-2-one (1a)] as the compound, how does the Kd [1] read?
A: Its Kd is < 1 µM.

Q: And the Kd [2]?
A: The Kd was 0.5 µM.

Q: What does the source list for `O=C1OC(O)(Cc2ccc(Cl)cc2)C(c2c[nH]c3cc(Cl)ccc23)=C1c1ccc(Cl)cc1` (centres undefined) [5-(4-Chlorobenzyl)-4-(6-chloro-1H-indol-3-yl)-3-(4-chlorophenyl)-5-hydroxy-1,5-dihydro-2H-furan-2-one (2e)]?
A: Kd [1]: 60 µM; Kd [2]: 1.3 µM

Q: `CN1C(=O)C(c2ccc(Cl)cc2)=C(c2c[nH]c3cc(Cl)ccc23)C1(O)Cc1ccc(Cl)cc1` (centres undefined) [N-Methyl-5-(4-chlorobenzyl)-4-(6-chloro-1H-indol-3-yl)-3-(4-chlorophenyl)-5-hydroxy-1,5-dihydro-2H-pyrrol-2-one (1c)] was tested. Which Kd [1] did it give?
A: Its Kd is 51 µM.

Q: What about the Kd [2] of the same compound?
A: The Kd was 18.7 µM.

Q: With `CN1C(=O)C(c2ccc(Cl)cc2)=C(c2cn(C)c3cc(Cl)ccc23)C1(O)Cc1ccc(Cl)cc1` (centres undefined) [N-Methyl-5-(4-chlorobenzyl)-4-(6-chloro-1-methyl-1H-indol-3-yl)-3-(4-chlorophenyl)-5-hydroxy-1,5-dihydro-2H-pyrrol-2-one (1e)] as the compound, how does the Kd [1] read?
A: Its Kd is 365 µM.

Q: What about the Kd [2] of the same compound?
A: The Kd was 40.5 µM.

Q: `CN1C(=O)C(c2cn(C)c3cc(Cl)ccc23)=C(c2ccc(Cl)cc2)C1(O)Cc1ccc(Cl)cc1` (centres undefined) [N-methyl-5-(4-chlorobenzyl)-3-(6-chloro-1-methyl-1H-indol-3-yl)-4-(4-chlorophenyl)-5-hydroxy-1,5-dihydro-2H-pyrrol-2-one (1f)] was tested. Which Kd [1] did it give?
A: The Kd was 246 µM.

Q: What about the Kd [2] of the same compound?
A: The Kd was 30.4 µM.

Q: For `O=C1OC(O)(Cc2ccc(F)cc2)C(Cc2ccc(Cl)cc2)=C1c1c[nH]c2cc(Cl)ccc12` (centres undefined) [4-(4-chlorobenzyl)-3-(6-chloro-1H-indol-3-yl)-5-(4-fluorobenzyl)-5-hydroxy-1,5-dihydro-2H-furan-2-one (2d)], which Kd [2] is on record?
A: Its Kd is 26 µM.

Q: How did the Kd [1] turn out when `CN1C(=O)C(c2c[nH]c3cc(Cl)ccc23)=C(Cc2ccc(Cl)cc2)C1(O)Cc1ccc(Cl)cc1` (centres undefined) [N-methyl-4,5-di(4-chlorobenzyl)-3-(6-chloro-1H-indol-3-yl)-5-hydroxy-1,5-dihydro-2H-pyrrol-2-one (1b)] was run?
A: The Kd was 56 µM.

Q: With `O=C1C(c2c[nH]c3cc(Cl)ccc23)=C(c2ccc(Cl)cc2)C(O)N1Cc1ccc(Cl)cc1` (centres undefined) [N-(4-Chlorobenzyl)-3-(6-chloro-1H-indol-3-yl)-4-(4-chlorophenyl)-5-hydroxy-1,5-dihydro-2H-pyrrol-2-on (1h)] as the compound, how does the Kd [1] read?
A: The Kd was 40 µM.

Q: What about the Kd [2] of the same compound?
A: The Kd was 2.1 µM.

Q: For `O=C1OC(O)(Cc2ccc(F)cc2)C(c2c[nH]c3cc(Cl)ccc23)=C1Cc1ccc(Cl)cc1` (centres undefined) [3-(4-Chlorobenzyl)-4-(6-chloro-1H-indol-3-yl)-5-(4-fluorobenzyl)-5-hydroxy-1,5-dihydro-2H-furan-2-one (2c)], which Kd [1] is on record?
A: Its Kd is 18 µM.

Q: What about the Kd [2] of the same compound?
A: The Kd was 28.7 µM.

Reference: BindingDB's records for doi:10.1021/acschembio.6b00596 (Jagiellonian University, 2016)
